A short description of the data set: Boiling temperature at pressure P. Particulars: 100 kPa; Liquid; Ebulliometric method (Recirculating still).

Molecules are shown by their SMILES. ± gives the expanded uncertainty stated by the source.

Take `CC(C)O` [propan-2-ol]: the “Boiling temperature at pressure P” value stood at 81.86 ± 0.22 °C.

For the origin of these results see the NIST ThermoML archive (doi:10.1021/je060354r).
